We go through 2 substances from article PMC12024264, “Frog Skin Peptides Hylin-a1, AR-23, and RV-23: Promising Tools Against Carbapenem-Resistant Escherichia coli and Klebsiella pneumoniae Infections” (Antibiotics, 2025).

Where no end group is shown, it is not given here.

One series has as its system HaCaT cells. The experiment in a line: MTT cytotoxicity assay on HaCaT keratinocytes. The class given is cell-based, human. The settings on record: for 50% cytotoxic concentration (CC50): HaCaT keratinocytes, 20 h exposure, 0.39 to 100 μM; for CC50 obtained by the fitting of the curves: HaCaT, 20 h, Figure 1. As to the method: To evaluate their safety profile, cytotoxicity assays were performed on HaCaT keratinocytes. Cells were exposed for 20 h to peptides at doses ranging from 0.39 to 100 μM.
Figure 1 Dose–response curves for the AMPs against HaCaT cell line and CC50 (reported in μM), HillSlope, and R^2 values were obtained by the fitting of the curves. The viability effect of Hylin-a1, AR-23, and RV-23 was analyzed on HaCaT cells. The cell monolayer was treated with serial dilutions of peptides for 20 h. Untreated cells were used as a positive control, while dimethyl sulfoxide (DMSO) was used as a negative control. HillSlope: The measure of the steepness of the dose–response curve. […] R^2 (coefficient of determination) indicates how well the model fits the data. Ranges from 0 to 1, with 1 representing a perfect fit.
The cytotoxic effect of peptides was examined using 3-(4,5 dimethylthiazol-2-yl)-2,5-diphenyltetrazolium bromide (MTT), as previously described. Cell viability, expressed as a percentage, was calculated in relation to the viability of untreated cells (+). DMSO was used as negative control (−). The human keratinocyte cell line HaCaT (Cell Lines Service, CLS-, Eppelheim, Germany) was used as a cellular model to evaluate the peptides’ cytotoxicity. HaCaT cells were grown in Dulbecco’s Modified Eagle Medium (DMEM) with 4.5 g/L of glucose (Microtech, Naples, Italy) supplemented with an antibiotic solution 100× (Himedia, Naples, Italy) and 10% Fetal Bovine Serum (FBS, Microtech).

A further series concerns E. coli 1376. Conditions: carbapenemase NDM (class B), rectal swab, N/D = no antibacterial activity detected; for MIC: microdilution, 37 °C, 20 h. As to the method:
(§1) Each strain was grown in Mueller Hinton Broth (MH Broth), and 5 × 10^5 CFU/mL was used to evaluate antibacterial activity. Clinical carbapenem-resistant K. pneumoniae and E. coli isolates were collected at the AOU of Virology and Microbiology of the University of Campania “Luigi Vanvitelli”.
(§2) The antimicrobial activity of Hylin-a1, AR-23, and RV-23 was investigated using a microdilution assay as reported by the National Committee on Clinical Laboratory Standards (NCCLS) guidelines against a broad spectrum of Gram-negative bacteria. […] In 96-well, the standardized bacterial inoculum (5 × 10^5 colony forming units, CFU/mL) was inoculated together with AMPs and incubated at 37 °C for 20 h. After the time of incubation, optical density (OD) was measured at TECAN, and data were expressed as a percentage of inhibition. In addition to assessing the MIC values, the bactericidal effect was also studied as reported elsewhere.
Background: Broth dilution looks for growth in wells or tubes with falling amounts of substance.

The next series concerns E. coli 1441. The settings on record: carbapenemase KPC (class A), rectal swab, N/D = no antibacterial activity detected; for MIC: microdilution, 37 °C, 20 h. As to the method:
as §1, §2

For a further series, the system named is E. coli 2267. Conditions: carbapenemase NDM (class B), rectal swab, N/D = no antibacterial activity detected; for MIC: microdilution, 37 °C, 20 h. As to the method: as §1, §2
The subject of another series is E. coli 3140. The settings on record: carbapenemase OXA-48 (class D), urine; microdilution, 37 °C, 20 h; N/D = no antibacterial activity detected. The protocol: as §1, §2
The next series concerns E. coli 716. The settings on record: carbapenemases IMP1, VIM, NDM (class B), urine, N/D = no antibacterial activity detected; for MIC: microdilution, 37 °C, 20 h. As to the method: as §1, §2
For another series, the system named is K. pneumoniae 1711. The settings on record: carbapenemase KPC (class A), rectal swab, N/D = no antibacterial activity detected; for MIC: microdilution, 37 °C, 20 h. As to the method:
as §1, §2

Another series concerns K. pneumoniae 1745. Conditions: carbapenemase KPC (class A), ulcer, N/D = no antibacterial activity detected; for MIC: microdilution, 37 °C, 20 h. As to the method: as §1, §2
The subject of the next series is K. pneumoniae 1746. The settings on record: carbapenemase VIM (class B), rectal swab; microdilution, 37 °C, 20 h; N/D = no antibacterial activity detected. The protocol: as §1, §2
The test system of the next series is E. coli ATCC 25992. The experiment in a line: Biofilm initial cell attachment assay. It is filed as cell-based, Escherichia coli. The settings on record: 2 h; for concentration of total reduction in biofilm attachment (antibiofilm MIC): initial cell attachment, 37 °C, peptides 50-1.56 μM, absorbance 570 nm. The protocol:
We also investigated the ability of peptides to interfere with biofilm using three different assays (refer to the Section 4) against K. pneumonia and E. coli.
Figure 3 The effect of Hylin-a1, AR-23, and RV-23 on the initial cell attachment of biofilm formation. […] Statistical analysis was performed by One-way ANOVA followed by Dunnett’s multiple comparisons test.
The anti-biofilm activity of peptides was evaluated against E. coli and K. pneumoniae ATCC strains. Bacterial cultures were grown overnight, then diluted to an OD600 of 0.1 in MH broth supplemented with 1% (v/v) glucose. A 100 μL aliquot of the bacterial suspension was combined with an equal volume of peptides at non-cytotoxic concentrations in a 96-well plate and incubated at 37 °C for 2 h. Following incubation, non-adherent planktonic cells were removed by washing with phosphate-buffered saline (PBS, Microtech), and adherent cells were incubated with MTT solution for 3 h at 37 °C. Additionally, adherent cells were collected, resuspended in PBS, and plated on agar for viable cell counting. Serial dilutions were performed for each peptide, and CFU/mL were determined after 20 h of incubation at 37 °C (Figure S2). Absorbance was measured at 570 nm to evaluate adhesion percentage.

A further series concerns K. pneumoniae 311. Conditions: carbapenemase OXA-48 (class D), rectal swab, N/D = no antibacterial activity detected. The protocol: as §1, §2
A further series relates to E. coli. Conditions: against E. coli; ref 63 (Zhang et al.); cited from earlier work. An excerpt: The activity of AR-23 and RV-23 against Gram-negative bacteria has been briefly described in previous studies. Zhang et al. evaluated the antibacterial effects of both peptides against E. coli. […] The authors attributed this enhanced activity to RV-23’s lower hydrophobicity and higher hydrophobic moment, factors strongly associated with reduced cytotoxicity and greater selectivity compared to AR-23. In contrast, the antibacteri ...

The subject of the next series is K. pneumoniae. The experiment in a line: Checkerboard assay with meropenem. The settings on record: checkerboard, 20 h, OD600.

Consider IFGAILPLALGALKNLIK-NH2 [Hylin-a1], for which the “50% cytotoxic concentration (CC50)” value in the series on HaCaT cells worked out at 100 µM. Further, the “CC50 obtained by the fitting of the curves” value in the series with HaCaT cells is 102.6 µM. Also, the MIC (usually the lowest concentration that inhibits growth of the organism) came to 25 µM in the series on E. coli 1376; 50 µM in the series on E. coli 1441; 25 µM in the series on E. coli 2267; 50 µM against E. coli 3140; 25 µM against E. coli 716; 25 µM in the series on K. pneumoniae 1711. In addition, the MIC with K. pneumoniae 1745 was 50 µM; against K. pneumoniae 1746, 25 µM. In addition, the MBC with E. coli 2267, in the series on K. pneumoniae 1711 and in the series on K. pneumoniae 1745 was 50 µM each time. Also, the “reduction of biofilm (initial attachment)” value in the series with E. coli ATCC 25992 (at 50 μM) is given as 80–100%. Besides, the “concentration of total reduction in biofilm attachment (antibiofilm MIC)” value in the series on E. coli ATCC 25992 was 50 µM.
On to RIGVLLARLPKLFSLFKLMGKKV-NH2 [RV-23], for which the “50% cytotoxic concentration (CC50)” value in the series with HaCaT cells came out at 100 µM. Further, the “CC50 obtained by the fitting of the curves” value in the series on HaCaT cells is 101.8 µM. Besides, the MBC (as a rule, the smallest concentration meeting the test's criterion for killing) in the series on E. coli 1376 came out at 6.25 µM; against E. coli 1441, 12.5 µM; with E. coli 2267 it was 12.5 µM; against E. coli 716, 25 µM; against K. pneumoniae 1711, 12.5 µM; in the series with K. pneumoniae 1745 it was 25 µM. In the series on K. pneumoniae 311, this substance showed an MBC of 50 µM. Also, the MIC in the series with E. coli 1376 worked out at 6.25 µM; against E. coli 1441, 6.25 µM; with E. coli 2267 it was 12.5 µM; against E. coli 3140, 25 µM; against E. coli 716, 25 µM; against K. pneumoniae 1711 it was 12.5 µM. For the same substance, the MIC in the series on K. pneumoniae 1745 was 12.5 µM; in the series with K. pneumoniae 1746, 12.5 µM; with K. pneumoniae 311 (microdilution, 37 °C, 20 h), 50 µM; in the series on E. coli, 3.33 µM. Further, in the series with E. coli ATCC 25992, the “concentration of total reduction in biofilm attachment (antibiofilm MIC)” value was 12.5 µM. Further, the “MIC of peptide in combination with meropenem” value in the series with K. pneumoniae stood at 3.125 µM.
